Test results from US5698528A, “Substance IT-62-B and medicinal composition containing the same” (Taiho Pharmaceutical Co., Ltd., priority 1994, dated 1997).
≈ marks a conversion by molar mass, not a printed value.

Legend:
[1] = system: Alcaligenes faecalis IAM 1015; assay: Antibacterial MIC (agar dilution); type: cell-based; conditions: IAM1015, Muller-Hinton agar, 37° C., 18 hours, 10^6 cells/ml
Protocol: (§1) (1) Determination of antibacterial activities of the substance IT-62-B:
(§2) Minimum inhibitory concentrations (MICs) of the compound according to the present invention against various bacteria were determined in accordance with the MIC measurement method of Japan Society of Chemotherapy (see journal of Chemotherapy, Vol. 29, No. 1, pp. 76-79, 1981). More specifically, Muller-Hinton agar media (product of Difco Co.) containing the compound according to the present invention at various concentrations were used. The test organisms diluted to 10^6 cells/ml, respectively, were inoculated said test organisms having been grown on the same medium as described above.

Bacillus cereus IFO 3001 = assay: Antibacterial MIC (agar dilution); type: cell-based; conditions: IFO3001, Muller-Hinton agar, 37° C., 18 hours, 10^6 cells/ml
Protocol: as §1, §2

[2] = system: Bacillus subtilis ATCC 6633; assay: Antibacterial MIC (agar dilution); type: cell-based; conditions: ATCC6633, Muller-Hinton agar, 37° C., 18 hours, 10^6 cells/ml
Protocol: as §1, §2

[3] = system: Bacillus subtilis ATCC(rec^+); assay: Antibacterial MIC (agar dilution); type: cell-based; conditions: Muller-Hinton agar, 37° C., 18 hours, 10^6 cells/ml
Protocol: as §1, §2

[4] = system: Bacillus subtilis ATCC(rec^-); assay: Antibacterial MIC (agar dilution); type: cell-based; conditions: Muller-Hinton agar, 37° C., 18 hours, 10^6 cells/ml
Protocol: as §1, §2

[5] = system: Enterococcus faecalis IFO 12968; assay: Antibacterial MIC (agar dilution); type: cell-based; conditions: IFO12968, Muller-Hinton agar, 37° C., 18 hours, 10^6 cells/ml
Protocol: as §1, §2

[6] = system: Escherichia coli IAM 1268; assay: Antibacterial MIC (agar dilution); type: cell-based; conditions: IAM1268, Muller-Hinton agar, 37° C., 18 hours, 10^6 cells/ml
Protocol: as §1, §2

Escherichia coli NIHJ = assay: Antibacterial MIC (agar dilution); type: cell-based; conditions: Muller-Hinton agar, 37° C., 18 hours, 10^6 cells/ml
Protocol: as §1, §2

[7] = system: Klebsiella pneumoniae ATCC 29665; assay: Antibacterial MIC (agar dilution); type: cell-based; conditions: ATCC29665, Muller-Hinton agar, 37° C., 18 hours, 10^6 cells/ml
Protocol: as §1, §2

[8] = system: Micrococcus luteus ATCC 10240; assay: Antibacterial MIC (agar dilution); type: cell-based; conditions: ATCC10240, Muller-Hinton agar, 37° C., 18 hours, 10^6 cells/ml
Protocol: as §1, §2

[9] = system: Micrococcus luteus ATCC 9341; assay: Antibacterial MIC (agar dilution); type: cell-based; conditions: ATCC9341, Muller-Hinton agar, 37° C., 18 hours, 10^6 cells/ml
Protocol: as §1, §2

[10] = system: Proteus vulgaris IID OX-19; assay: Antibacterial MIC (agar dilution); type: cell-based; conditions: IIDOX19, Muller-Hinton agar, 37° C., 18 hours, 10^6 cells/ml
Protocol: as §1, §2

[11] = system: Pseudomonas aeruginosa NCTC 10490; assay: Antibacterial MIC (agar dilution); type: cell-based; conditions: NCTC10490, Muller-Hinton agar, 37° C., 18 hours, 10^6 cells/ml
Protocol: as §1, §2

[12] = system: Salmonella typhymurium G-46; assay: Antibacterial MIC (agar dilution); type: cell-based; conditions: G46, Muller-Hinton agar, 37° C., 18 hours, 10^6 cells/ml
Protocol: as §1, §2

[13] = system: Serratia marcescens IFO 12648; assay: Antibacterial MIC (agar dilution); type: cell-based; conditions: IFO12648, Muller-Hinton agar, 37° C., 18 hours, 10^6 cells/ml
Protocol: as §1, §2

[14] = system: Staphylococcus aureus (MRSA)70; assay: Antibacterial MIC (agar dilution); type: cell-based; conditions: 18 h
Protocol: as §1, §2

[15] = system: Staphylococcus aureus (MRSA)92-1192; assay: Antibacterial MIC (agar dilution); type: cell-based; conditions: 18 h
Protocol: as §1, §2

[16] = system: Staphylococcus aureus Smith; assay: Antibacterial MIC (agar dilution); type: cell-based; conditions: Muller-Hinton agar, 37° C., 18 hours, 10^6 cells/ml
Protocol: as §1, §2

[17] = system: Staphylococcus epidermidis ATCC 12228; assay: Antibacterial MIC (agar dilution); type: cell-based; conditions: ATCC12228, Muller-Hinton agar, 37° C., 18 hours, 10^6 cells/ml
Protocol: as §1, §2

[18] = system: KB cell line derived from human nasopharyngeal carcinoma; assay: 50% inhibitory concentration against KB cell line (growth inhibition, trypan blue viable count); type: cell-based; conditions: 72 h, incubation for 3 days, 37° C., trypan blue dye exclusion
Protocol: A. Determination of 50% inhibitory concentration against the established culture cell line derived from human nasopharyngeal carcinoma:
A 50% inhibitory concentration (IC50) of the compound according to the present invention against an established culture cell line (KB cell line) derived from human nasopharyngeal carcinoma was determined. More specifically, the KB cell line (2×10^3 cells/ml of medium) was cultured in an Eagle's minimal essential medium supplemented with a 10% calf serum, and 3 ml of this culture medium was incubated in a plastic Petri dish to incubate it at 37° C. in a CO2 -incubator (5% CO2). After overnight incubation, the compound according to the present invention was added with the compound diluted from a concentration of 1 μg/ml to a concentration of 1×10^-6 μg/ml by 10-fold dilution.

[19] = system: murine leukemia P388 cells; assay: Survival effect against murine leukemia P388 cells implanted intraperitoneally; type: in vivo, mouse (male CDF1); conditions: 0.25 mg/kg intraperitoneally, 1 day after i.p. implantation of 1×10^6 P388 cells, male CDF1 mice
From the text: B. Survival effect against murine leukemia P388 cells implanted intraperitoneally:
The antitumor activity of the compound according to the present invention was judged by the survival effect against murine leukemia (p388 cells). The three of Male CDF1 mice (aged 6 weeks) were used as test animals for an administering group and 10 mice for an untreating control group. Murine leukemia P388 cells (1×10^6 cells) were implanted intraperitoneally in all the mice. Upon elapsed time of 1 day (the first day) after the implantation, the substance IT-62-B dissolved in a 3.5% solution of dimethyl sulfoxide in physiological saline was administered intraperitoneally to the mice of the administering group at a dose of 0.25 mg/kg so as to observe survival days of the mice. […] [formula]

COc1cccc2c1C(=O)c1c(O)c3c(c(O)c1C2=O)CC(O)(C(C)=O)CC3OC1CC2C(OC(CC(C)O)OC(C)C3OC(C(C)CO)C(=O)N23)C(C)O1 (stereo not drawn) [IT-62-B]
MIC [1]: 12.5 µg/mL (≈ 16.2 µM) | MIC (Bacillus cereus IFO 3001): 12.5 µg/mL (≈ 16.2 µM) | MIC [2]: 3.13 µg/mL (≈ 4.07 µM) | MIC [3]: 6.25 µg/mL (≈ 8.12 µM) | MIC [4]: 0.39 µg/mL (≈ 0.507 µM) | MIC [5]: 50 µg/mL (≈ 65 µM) | MIC [6]: 50 µg/mL (≈ 65 µM) | MIC (Escherichia coli NIHJ): 100 µg/mL (≈ 130 µM) | MIC [7]: > 100 µg/mL | MIC [8]: 1.56 µg/mL (≈ 2.03 µM) | MIC [9]: 3.13 µg/mL (≈ 4.07 µM) | MIC [10]: > 100 µg/mL | MIC [11]: > 100 µg/mL | MIC [12]: > 100 µg/mL | MIC [13]: > 100 µg/mL | MIC [14]: 12.5 µg/mL (≈ 16.2 µM) | MIC [15]: 12.5 µg/mL (≈ 16.2 µM) | MIC [16]: 6.25 µg/mL (≈ 8.12 µM) | MIC [17]: 25 µg/mL (≈ 32.5 µM) | IC50 [18]: 0.006 µg/mL (≈ 0.00779 µM) | Percent increase in survival [19]: 119%
